The assay deals with T1, T1R umami taste receptor (Homo sapiens, UniProt Q7RTX0+Q7RTX1).
T1 sequence (Q7RTX1 21-841): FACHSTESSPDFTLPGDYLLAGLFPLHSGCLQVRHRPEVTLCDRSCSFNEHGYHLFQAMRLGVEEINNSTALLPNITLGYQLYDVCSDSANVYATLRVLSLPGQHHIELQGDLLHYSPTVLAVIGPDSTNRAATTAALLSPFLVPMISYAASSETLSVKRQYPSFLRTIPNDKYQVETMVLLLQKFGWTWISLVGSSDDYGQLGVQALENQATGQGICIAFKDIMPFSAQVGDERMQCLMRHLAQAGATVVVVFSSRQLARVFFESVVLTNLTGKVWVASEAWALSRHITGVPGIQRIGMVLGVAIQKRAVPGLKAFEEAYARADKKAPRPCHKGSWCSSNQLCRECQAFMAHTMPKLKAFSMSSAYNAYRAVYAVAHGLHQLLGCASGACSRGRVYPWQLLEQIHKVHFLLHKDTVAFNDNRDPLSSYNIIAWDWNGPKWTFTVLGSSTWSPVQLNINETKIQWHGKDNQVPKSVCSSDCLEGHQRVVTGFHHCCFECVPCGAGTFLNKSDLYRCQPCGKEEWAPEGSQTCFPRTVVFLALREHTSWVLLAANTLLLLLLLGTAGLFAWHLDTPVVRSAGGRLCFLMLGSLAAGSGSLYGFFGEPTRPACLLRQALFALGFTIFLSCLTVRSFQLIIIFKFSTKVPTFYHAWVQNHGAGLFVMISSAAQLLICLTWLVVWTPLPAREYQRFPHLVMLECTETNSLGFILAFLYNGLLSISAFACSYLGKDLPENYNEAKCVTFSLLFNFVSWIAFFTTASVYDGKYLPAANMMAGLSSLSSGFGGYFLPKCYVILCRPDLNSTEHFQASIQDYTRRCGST
T1 sequence (Q7RTX0 21-852): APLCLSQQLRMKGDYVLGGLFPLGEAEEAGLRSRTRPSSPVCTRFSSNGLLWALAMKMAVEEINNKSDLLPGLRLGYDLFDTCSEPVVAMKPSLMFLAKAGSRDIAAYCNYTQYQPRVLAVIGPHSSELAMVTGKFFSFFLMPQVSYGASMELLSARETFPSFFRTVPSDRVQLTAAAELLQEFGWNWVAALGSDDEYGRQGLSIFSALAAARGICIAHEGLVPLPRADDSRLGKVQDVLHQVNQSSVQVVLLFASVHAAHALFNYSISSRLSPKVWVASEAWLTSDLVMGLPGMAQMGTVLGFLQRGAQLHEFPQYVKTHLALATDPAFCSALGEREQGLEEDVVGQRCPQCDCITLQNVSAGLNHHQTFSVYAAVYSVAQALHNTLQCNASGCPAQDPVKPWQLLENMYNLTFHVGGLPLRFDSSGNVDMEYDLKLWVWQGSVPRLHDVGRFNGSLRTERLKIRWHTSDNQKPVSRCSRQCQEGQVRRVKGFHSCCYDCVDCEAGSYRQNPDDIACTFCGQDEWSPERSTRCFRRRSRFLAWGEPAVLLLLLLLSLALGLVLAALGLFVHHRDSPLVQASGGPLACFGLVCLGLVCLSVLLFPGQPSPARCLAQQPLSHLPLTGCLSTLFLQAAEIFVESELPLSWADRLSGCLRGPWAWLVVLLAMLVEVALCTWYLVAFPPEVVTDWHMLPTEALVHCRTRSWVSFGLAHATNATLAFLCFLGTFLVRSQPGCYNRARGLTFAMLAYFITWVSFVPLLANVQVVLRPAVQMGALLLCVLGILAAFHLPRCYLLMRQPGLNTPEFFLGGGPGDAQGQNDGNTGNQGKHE
Briefly: in vitro cell-based assay, cells expressing the T1R umami taste receptor; enhancement of MSG. The following applies: for MSG Enh. Ratio: MSG enhancement ratio at a particular concentration (concentration not given); for EC50: cells that express the T1R umami taste receptor, dose-binding curves. Here is the method: Each of Compounds 101-145 was synthesized according to one of the general procedures set forth above in Examples 1 and Example 2. Thereafter, the compounds were tested in an in vitro cell-based assay having cells that express the T1R umami taste receptor. Dose-binding curves were recorded and the EC50 was determined for enhancement of MSG binding. Table 2 sets forth the calculated EC50 values for certain tested compounds as well as the MSG enhancement ratio at a particular concentration.

What is called EC50 is the concentration at which the effect is half-maximal. For `CC(C)[C@H](NC(=O)/C=C/c1ccccc1)C(=O)O` [Compound 132, Cinnamoyl-L-valine], the “MSG Enh. Ratio” value is listed as 1.7 and the EC50 is over 50 µM.

`CC(C)C[C@H](NC(=O)/C=C/c1ccccc1)C(=O)O` [Compound 133, Cinnamoyl-L-leucine]: the “MSG Enh. Ratio” value is given as 1.1 and the EC50 was over 50 µM.

With `O=C(O)CC[C@H](NC(=O)/C=C/c1ccccc1)C(=O)O` [Compound 134, Cinnamoyl-L-glutamate], the “MSG Enh. Ratio” value was 1.2 and the EC50 was over 50 µM. In the same order, the values of `COc1ccc(/C=C/C(=O)N[C@@H](Cc2ccc(OC)cc2)C(=O)O)cc1` [Compound 135, (S,E)-3-(4-methoxyphenyl)-2-(3-(4-methoxyphenyl)acrylamido)propanoic acid] are 2.0 and over 50 µM. Turning to `COc1ccc(/C=C/C(=O)N[C@H](C(=O)O)C(C)C)cc1` [Compound 136, (E)-(3-(4-methoxyphenyl)acryloyl)-L-valine], the EC50 is over 50 µM. On to `COc1ccc(/C=C/C(=O)N[C@H](CC(C)C)C(=O)O)cc1` [Compound 137, (E)-(3-(4-methoxyphenyl)acryloyl)-D-leucine], for which the “MSG Enh. Ratio” value was 4.7 and the EC50 was 7.74 µM. Regarding `COc1ccc(/C=C/C(=O)N[C@@H](CC(C)C)C(=O)O)cc1` [Compound 138, (E)-(3-(4-methoxyphenyl)acryloyl)-L-leucine], the “MSG Enh. Ratio” value was 1.0 and the EC50 was over 50 µM. In the same order, the values of `CC[C@H](C)[C@H](NC(=O)/C=C/c1ccc(OC)cc1)C(=O)O` [Compound 139, ((E)-3-(4-methoxyphenyl)acryloyl)-L-isoleucine] are 1.5 and over 50 µM.

Take `COc1ccc(/C=C/C(=O)N[C@@H](Cc2ccc(OC)cc2)C(=O)O)cc1` [Compound 140, (S,E)-3-(4-methoxyphenyl)-2-(3-(4-methoxyphenyl)acrylamido)propanoic acid]: the “MSG Enh. Ratio” value was determined as 1.8 and the EC50 is over 50 µM. As to `COc1ccc(C[C@H](NC(=O)/C=C/c2ccc(OC)c(OC)c2)C(=O)O)cc1` [Compound 141, (S,E)-2-(3-(3,4-dimethoxyphenyl)acrylamido)-3-(4-methoxyphenyl)propanoic acid], the “MSG Enh. Ratio” value was determined as 1.6 and the concentration for a half-maximal effect (EC50) was over 50 µM.

`COc1ccc(/C=C/C(=O)N[C@@H](CCC(=O)O)C(=O)O)cc1` [Compound 142, (E)-(3-(4-methoxyphenyl)acryloyl)-L-glutamic acid]: the “MSG Enh. Ratio” value is on record as 2.2 and the EC50 was over 50 µM. In the same order, the values of `COc1ccc(/C=C/C(=O)N[C@@H](CCC(=O)O)C(=O)O)cc1O` [Compound 143, (E)-(3-(3-hydroxy-4-methoxyphenyl)acryloyl)-L-glutamic acid] are 1.0 and over 50 µM. Take `COc1ccc(/C=C/C(=O)N[C@H](CCC(=O)O)C(=O)O)cc1O` [Compound 144, (E)-(3-(3-hydroxy-4-methoxyphenyl)acryloyl)-D-glutamic acid]: the EC50 was over 50 µM. Turning to `CC(C)/C=C/C(=O)N[C@@H](CCC(=O)O)C(=O)O` [Compound 145, (E)-(4-methylpent-2-enoyl)-L-glutamic acid], the “MSG Enh. Ratio” value turned out to be 1.0 and the EC50 was over 50 µM.

The values above are taken from patent publication US20250176598A1, “AMIDE COMPOUNDS AND THEIR USE AS FLAVOR MODIFIERS” (Firmenich Incorporated, priority 2022, published 2025).
